Series [1] is described as follows: Aqueous solubility in pH 7.4 PBS buffer at 1 mM after 6 hrs by HPLC analysis. It is filed as physicochemical.
A short description of series [2]: Toxicity in fertilized zebra fish embryos assessed as survival rate at 1000 nM incubated for 120 hrs post fertilization by microscopic method relative to untreated control (reference value: 100%). Also on record: species or system Danio rerio. The conditions noted are these: zebrafish.
Series [3] in a line: Toxicity in fertilized zebra fish embryos assessed as survival rate at 100 nM incubated for 120 hrs post fertilization by microscopic method relative to untreated control (reference value: 100%). Also on record: species or system Danio rerio. The conditions noted are these: zebrafish.
Series [4] in a line: Toxicity in fertilized zebra fish embryos assessed as survival rate at 300 nM incubated for 120 hrs post fertilization by microscopic method relative to untreated control (reference value: 100%). On the set-up: species or system Danio rerio. The conditions noted are these: zebrafish.
Series [5] in a line: Toxicity in fertilized zebra fish embryos assessed as hatching rate at 100 nM incubated for 120 hrs post fertilization by microscopic method relative to untreated control (reference value: 100%). On the set-up: species or system Danio rerio. The conditions noted are these: zebrafish, 0.1 µM.
The nature of series [6]: Toxicity in fertilized zebra fish embryo assessed as teratogenic effect by measuring malformation of spine curvature and head enlargement at 100 nM after 120 hrs post fertilization by microscopic method relative to control. On the set-up: species or system Danio rerio. Conditions: zebrafish, 0.1 µM.
Series [7] can be described thus: Toxicity in fertilized zebra fish embryos assessed as hatching rate at 1000 nM incubated for 120 hrs post fertilization by microscopic method relative to untreated control (reference value: 100%). Also on record: species or system Danio rerio. The conditions noted are these: zebrafish, 1 µM.
Series [8] can be described thus: Toxicity in fertilized zebra fish embryos assessed as hatching rate at 300 nM incubated for 120 hrs post fertilization by microscopic method relative to untreated control (reference value: 100%). Also on record: species or system Danio rerio. The conditions noted are these: zebrafish, 0.3 µM.
A short description of series [9]: Toxicity in fertilized zebra fish embryo assessed as teratogenic effect by measuring malformation of spine curvature and head enlargement at 300 nM after 120 hrs post fertilization by microscopic method relative to control. On the set-up: species or system Danio rerio. Conditions: zebrafish, 0.3 µM.
Series [10] can be described thus: Toxicity in fertilized zebra fish embryo assessed as teratogenic effect by measuring malformation of spine curvature and head enlargement at 1000 nM after 120 hrs post fertilization by microscopic method relative to control. Also on record: species or system Danio rerio. Conditions: zebrafish, 1 µM.
In series [11] the target is T1, Retinoic acid receptor RXR-alpha (Homo sapiens, UniProt P19793).
T1 sequence (P19793 whole entry): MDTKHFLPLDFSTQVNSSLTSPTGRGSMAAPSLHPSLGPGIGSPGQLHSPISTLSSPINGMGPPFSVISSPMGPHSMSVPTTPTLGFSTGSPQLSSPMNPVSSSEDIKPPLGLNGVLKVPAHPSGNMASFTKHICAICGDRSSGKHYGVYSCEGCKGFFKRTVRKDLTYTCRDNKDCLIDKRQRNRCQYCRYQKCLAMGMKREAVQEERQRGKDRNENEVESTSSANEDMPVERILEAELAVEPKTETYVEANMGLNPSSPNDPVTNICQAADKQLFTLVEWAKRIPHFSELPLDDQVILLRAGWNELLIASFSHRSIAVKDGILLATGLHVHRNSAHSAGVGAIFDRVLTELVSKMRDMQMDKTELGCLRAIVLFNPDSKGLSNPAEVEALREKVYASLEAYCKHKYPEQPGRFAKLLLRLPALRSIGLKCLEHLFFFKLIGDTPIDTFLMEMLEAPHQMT
Kind of series: Agonist activity at human RXRalpha expressed in African green monkey COS1 cells harboring CRBP2-tk-luc reporter incubated for 18 hrs by steady-glo luciferase reporter gene assay. The format is cell-based.

A short description of series [12]: Toxicity in fertilized zebra fish embryo assessed as induction of malformation of spine curvature at 1000 nM after 120 hrs post fertilization by microscopic method relative to control. On the set-up: species or system Danio rerio. The conditions noted are these: zebrafish, 1 µM.
Series [13] is described as follows: Toxicity in fertilized zebra fish embryos assessed as survival rate at 287 nM incubated for 120 hrs post fertilization by microscopic method relative to untreated control (reference value: 100%). On the set-up: species or system Danio rerio. The conditions noted are these: zebrafish.
Series [14] can be described thus: Toxicity in fertilized zebra fish embryos assessed as hatching rate at 287 nM incubated for 120 hrs post fertilization by microscopic method relative to untreated control (reference value: 100%). Also on record: species or system Danio rerio. Conditions: zebrafish, 0.287 µM.

The values below come from ChEMBL document CHEMBL4433234, “3H-Imidazo[4,5-b]pyridine-6-carboxylic acid derivatives as rexinoids with reduced teratogenicity” (Bioorg Med Chem Lett, 2019).

A word on the solubility: it is the dissolved amount per volume that the medium holds. Usually EC50 stands for the concentration giving half of the maximal effect.

The structures appear in SMILES notation. Converted amounts (≈) assume the structure as drawn.

For the compound `Cc1cc2c(cc1-n1nnc3cc(C(=O)O)ccc31)C(C)(C)CCC2(C)C`, the concentration in solution in series [1] (solubility at 6 h, 1000 µM) was 305 µM (≈ 111 µg/mL). In [2], the survival at 120 h, 1 µM worked out at 100%. Also, in series [3], the survival at 120 h, 0.1 µM stood at 100%. In addition, the survival at 120 h, 0.3 µM in [4] turned out to be 100%.

With `Cc1cc2c(cc1-n1c(C(F)(F)F)nc3cc(C(=O)O)ccc31)C(C)(C)CCC2(C)C`, the Activity in series [5] turned out to be 83%; in series [6], 0%; in [7], 100%; in series [8], 92%; in series [9], 0%; in series [10], 17%. For the same compound, the solubility at 6 h, 1000 µM in series [1] was determined as 12.8 µM (≈ 5.51 µg/mL). Further, in [2], the survival at 120 h, 1 µM came to 100%. In addition, the survival at 120 h, 0.1 µM in series [3] is 100%. Moreover, in [4], the survival at 120 h, 0.3 µM turned out to be 100%.

For `Cc1cc2c(cc1-n1c(C(F)(F)F)nc3cc(C(=O)O)cnc31)C(C)(C)CCC2(C)C`, the Activity is given as 92% in series [5]; 0% in [6]; 83% in series [7]; 100% in series [8]; “Non-Toxic” in [12]; 0% in series [9]. Moreover, in [10], the Activity was 10%. The compound further returned a solubility at 6 h, 1000 µM in series [1] of 222 µM (≈ 95.8 µg/mL). For the same compound, a half-maximal effect in [11] (EC50) was put at 670 nM. In addition, the survival at 120 h, 1 µM in [2] worked out at 100%. Further, the survival at 120 h, 0.1 µM in series [3] is 100%. For the same compound, the survival at 120 h, 0.3 µM in [4] turned out to be 100%.

Turning to `Cc1cc2c(cc1-n1nnc3cc(C(=O)O)cnc31)C(C)(C)CCC2(C)C`, the Activity in [5] is reported as 100%; in [6], 0%; in series [7] it was 100%; in [8], 100%; in series [12], “Toxic”; in [9], 0%. Besides, the Activity in series [10] came out at 25%. In series [1], this compound displayed a solubility at 6 h, 1000 µM of 670 µM (≈ 244 µg/mL). This compound also yielded an EC50 in [11] of 275 nM. In series [2], the survival at 120 h, 1 µM was found to be 100%. Moreover, the survival at 120 h, 0.1 µM in [3] is 100%. In addition, the survival at 120 h, 0.3 µM in series [4] was 100%.

Regarding `C=C(c1ccc(C(=O)O)cc1)c1cc2c(cc1C)C(C)(C)CCC2(C)C` [BEXAROTENE], the figures for the Activity in series [5], in [6] and in series [14] were 67 to 100%, 100% and 99%, respectively. The solubility at 6 h, 1000 µM in series [1] stood at 0.25 µM (≈ 0.0871 µg/mL). The survival at 120 h, 0.287 µM in series [13] came to 99%. Besides, the survival at 120 h, 0.1 µM in series [3] came to 100%.
